Results: patent publication US7524864B2, “Methods of treating sleep disorders” (Hypnion, Inc., priority 2004, dated 2009)
Where two headings read alike, the source gives them in different places.

What was measured:
[1] = target: T1, human recombinant M1 expressed in CHO cells (Homo sapiens, UniProt P11229); conditions: reference compounds; read-out: Ki of reference compounds in M1 binding assay; cited from earlier work
T1 construct: purchased PerkinElmer, Inc., Wellesley, Mass; host or cells: CHO cells
T1 sequence (P11229 1-460): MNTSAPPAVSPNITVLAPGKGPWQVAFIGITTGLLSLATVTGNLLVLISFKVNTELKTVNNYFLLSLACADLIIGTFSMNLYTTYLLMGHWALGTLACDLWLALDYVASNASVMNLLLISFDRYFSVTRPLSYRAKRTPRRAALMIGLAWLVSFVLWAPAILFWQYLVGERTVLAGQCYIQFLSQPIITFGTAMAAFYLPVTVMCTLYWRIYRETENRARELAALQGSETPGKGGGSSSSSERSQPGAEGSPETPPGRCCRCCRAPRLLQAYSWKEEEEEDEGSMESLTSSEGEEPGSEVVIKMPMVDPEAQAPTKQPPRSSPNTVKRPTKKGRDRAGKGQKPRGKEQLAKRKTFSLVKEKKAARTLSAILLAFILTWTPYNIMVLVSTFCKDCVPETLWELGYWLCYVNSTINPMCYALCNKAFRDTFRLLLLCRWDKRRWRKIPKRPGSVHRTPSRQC

H1 receptor = target: T2, H1 receptor (Bos taurus, UniProt P30546); test: H1 histamine receptor competitive binding assay ([3H]pyrilamine displacement); set-up: species or system bovine
T2 construct: the receptors are obtained from bovine cerebellar membrane tissue; from tissue; host or cells: bovine cerebellar membranes
T2 sequence (P30546 whole entry): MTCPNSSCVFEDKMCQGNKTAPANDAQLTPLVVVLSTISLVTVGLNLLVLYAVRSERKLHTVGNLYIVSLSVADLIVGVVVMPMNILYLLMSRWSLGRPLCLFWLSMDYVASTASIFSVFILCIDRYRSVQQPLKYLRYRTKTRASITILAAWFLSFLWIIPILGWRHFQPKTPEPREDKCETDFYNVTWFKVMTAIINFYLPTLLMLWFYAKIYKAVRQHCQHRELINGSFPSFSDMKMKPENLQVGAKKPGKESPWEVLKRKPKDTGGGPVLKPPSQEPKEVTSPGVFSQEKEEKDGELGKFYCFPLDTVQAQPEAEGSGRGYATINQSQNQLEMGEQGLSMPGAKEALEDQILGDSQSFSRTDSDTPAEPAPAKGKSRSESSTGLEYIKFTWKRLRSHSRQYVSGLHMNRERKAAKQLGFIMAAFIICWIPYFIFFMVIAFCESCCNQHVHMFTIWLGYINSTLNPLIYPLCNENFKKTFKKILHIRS

[2] = target: T1, human recombinant M1 expressed in CHO cells; test: M1 muscarinic receptor binding assay ([3H]-scopolamine, N-methyl chloride displacement); conditions: Table 5; read-out: M1 inhibition constant Ki
[3] = target: T3, human recombinant M2 expressed in CHO cells (Homo sapiens, UniProt P08172); test: M2 muscarinic receptor binding assay ([3H]-scopolamine, N-methyl chloride displacement); conditions: Table 5; read-out: M2 inhibition constant Ki
T3 construct: purchased PerkinElmer, Inc., Wellesley, Mass; host or cells: CHO cells
T3 sequence (P08172 1-466): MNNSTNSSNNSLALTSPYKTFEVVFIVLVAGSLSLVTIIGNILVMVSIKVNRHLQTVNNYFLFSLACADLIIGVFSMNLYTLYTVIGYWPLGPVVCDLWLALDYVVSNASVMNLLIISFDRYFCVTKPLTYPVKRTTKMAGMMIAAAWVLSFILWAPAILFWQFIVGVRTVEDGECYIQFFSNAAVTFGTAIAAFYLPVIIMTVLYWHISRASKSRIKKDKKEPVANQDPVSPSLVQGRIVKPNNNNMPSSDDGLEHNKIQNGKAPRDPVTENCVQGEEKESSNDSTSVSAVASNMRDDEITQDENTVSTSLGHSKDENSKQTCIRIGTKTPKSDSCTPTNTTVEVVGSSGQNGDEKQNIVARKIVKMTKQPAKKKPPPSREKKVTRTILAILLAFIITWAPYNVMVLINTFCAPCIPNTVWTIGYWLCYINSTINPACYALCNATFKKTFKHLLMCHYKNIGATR

[4] = target: T4, human recombinant M3 expressed in CHO cells (Homo sapiens, UniProt P20309); test: M3 muscarinic receptor binding assay ([3H]-scopolamine, N-methyl chloride displacement); conditions: Table 5; read-out: M3 inhibition constant Ki
T4 construct: purchased PerkinElmer, Inc., Wellesley, Mass; host or cells: CHO cells
T4 sequence (P20309 whole entry): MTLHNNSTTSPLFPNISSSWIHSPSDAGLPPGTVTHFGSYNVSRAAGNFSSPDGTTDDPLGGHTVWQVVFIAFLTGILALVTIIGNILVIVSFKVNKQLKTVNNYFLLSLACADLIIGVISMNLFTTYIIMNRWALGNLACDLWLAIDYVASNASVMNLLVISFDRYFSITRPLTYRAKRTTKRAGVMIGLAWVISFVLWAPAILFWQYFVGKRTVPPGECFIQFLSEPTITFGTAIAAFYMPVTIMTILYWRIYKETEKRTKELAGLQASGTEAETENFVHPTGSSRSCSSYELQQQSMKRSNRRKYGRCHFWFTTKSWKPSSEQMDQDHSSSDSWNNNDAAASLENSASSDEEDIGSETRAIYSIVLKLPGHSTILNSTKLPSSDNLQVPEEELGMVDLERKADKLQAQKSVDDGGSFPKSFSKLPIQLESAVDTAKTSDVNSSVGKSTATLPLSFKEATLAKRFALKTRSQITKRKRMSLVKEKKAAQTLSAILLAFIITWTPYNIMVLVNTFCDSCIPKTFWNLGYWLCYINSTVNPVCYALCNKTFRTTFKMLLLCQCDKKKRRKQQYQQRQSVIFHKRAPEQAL

[5] = tested on: sleep (NREM, LUSB) in male Wistar rats; test: Sleep-wakefulness monitoring (SCORE-2000, EEG/EMG) in male Wistar rats; assay type: in vivo, rat; conditions: oral, CT-18
Protocol: Sleep-wakefulness, locomotor activity and body temperature are monitored in male Wistar rats treated with a test compound (i.e., doxepin analog) initially at a concentration of 10 mg/kg. Higher and lower doses are assayed for select compounds (e.g., as high as 45 mg/kg, and as low as necessary to establish a no-effect dose). Treatments are administered at CT-18, the peak of the activity dominated period (6 hours after lights-off), and produced soporific (sleep-inducing) effects characterized by increased non-REM sleep time, increased sleep continuity, but without evidence of REM sleep inhibition or rebound insomnia.
Sleep-wakefulness, locomotor activity and body temperature are monitored in vivo with the disclosed sleep-inducing agents. Adult, male Wistar rats (250 g at time of surgery, Charles River Laboratories, Wilmington Mass.) were anesthetized (2% isoflourane in medical grade oxygen) and surgically prepared with a cranial implant to permit chronic electro-encephalogram (EEG) and electromyogram (EMG) recording. Body temperature and locomotor activity were monitored via a miniature transmitter (Mini-Mitter, Bend, Oreg.) surgically placed in the abdomen. The cranial implant consisted of stainless steel screws (two frontal [+3.2 AP from bregma, ±2.0 ML] and two occipital [−6.9 AP, ±5.5 ML]) for EEG recording. Two Teflon®-coated stainless steel wires were positioned under the nuchal trapezoid muscles for EMG recording. All leads were soldered to a miniature connector prior to surgery, and gas sterilized in ethylene oxide. The implant assembly was affixed to the skull with dental acrylic. A minimum of three weeks was allowed for surgical recovery.
Each rat is permanently housed in its own individual recording cage located within separate, ventilated compartments of custom-designed stainless steel cabinets. Each cage is enhanced with a filter-top riser and low-torque swivel-commutator. Food and water are available ad libitum. A 24-hr light-dark cycle (12 hours light, 12 hours dark) is maintained throughout the study. Animals are undisturbed for at least 48 hours before and after treatments.
Sleep and wakefulness is determined using “SCORE-2000™”(Hypnion, Worcester, Mass.)—an internet-based sleep-wake and physiological monitoring system. The system monitored amplified EEG (bandpass 1-30 Hz), integrated EMG (bandpass 10-100 Hz), body temperature and non-specific locomotor activity (LMA) via telemetry, and drinking activity, continuously and simultaneously. Arousal states are classified on-line as non-REM (NREM) sleep, REM sleep, wake, or theta-dominated wake every 10 seconds. Total drinking and locomotor activity counts, and body temperature were quantitiated and recorded each minute, using EEG feature extraction and pattern-matching algorithms. […] The classification algorithm used individually-taught EEG-arousal-state templates, plus EMG criteria to differentiate REM sleep from theta-dominated wakefulness, plus behavior-dependent contextual rules (e.g., if the animal was drinking, it is awake). Drinking and locomotor activity intensity (LMA) are recorded as discrete events every 10 seconds, while body temperature was recorded each minute. Locomotor activity was detected by a telemetry receiver (Mini-Mitter) beneath the cage. Telemetry measures (LMA and body temperature) are not part of the scoring algorithm; thus, sleep-scoring and telemetry data were independent measures.
Compounds are administered at CT-18, the peak of the activity-dominated period, in order to ensure prior wakefulness is sufficient to interact positively with hypnotic-drug effects, and sufficient time is allowed to view the time course of the treatment effect before lights-on (6 hours post-treatment). Compounds are suspended in sterile 0.25% or 0.5% methylcellulose (1-2 ml/kg). Treatments are administered orally as a bolus.
A parallel group study design is employed. […]

## C[N+]1(C)CCC(OC(=O)C(c2ccccc2)c2ccccc2)CC1 [4-DAMP methiodide]
[1]
  Ki: 0.27 nM

## CC(C)(CN1CCC(=C2c3ccc(F)cc3CSc3ccccc32)CC1)C(=O)O.Cl [Compound 8]
H1 receptor; H1 versus M1, M2, M3 Ki
  specificity for H1 over the muscarinic receptors: specific for H1 over the muscarinic receptors
H1 receptor; bovine H1, Table 5, read-out: H1 (bovine) inhibition constant Ki
  Ki: 50.6 nM
[2]
  Ki: > 10000 nM
[3]
  Ki: > 10000 nM
[4]
  Ki: > 10000 nM
[5]; 3 mg/kg
  LUSB (longest uninterrupted sleep bout): 4.7 ± 3.2 min
[5]; 10 mg/kg
  LUSB (longest uninterrupted sleep bout): 6.3 ± 1.7 min
  NREM: 20 ± 5 min
[5]; 30 mg/kg
  LUSB (longest uninterrupted sleep bout): 10.9 ± 2.3 min
  NREM: 41 ± 9 min
[5]; 56 mg/kg
  LUSB (longest uninterrupted sleep bout): 9.3 ± 2.2 min
  NREM: 57 ± 7 min
[5]; 100 mg/kg
  LUSB (longest uninterrupted sleep bout): 13.2 ± 2.8 min
  NREM: 52 ± 8 min
